Measurements taken from PubChem BioAssay (NCI).
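Results reflect a 48-hour exposure of cells in 96-well plates to compound at five concentrations. TGI: concentration producing complete growth inhibition.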

Assays:
Assay in all cases: DTP human tumour cell line panel, 48 h
[1] = tested on: U251 CNS
[2] = tested on: HCT-15 colon
[3] = tested on: MALME-3M melanoma
[4] = tested on: CCRF-CEM leukemia
[5] = tested on: SW-620 colon
[6] = tested on: M14 melanoma
[7] = tested on: OVCAR-4 ovarian
[8] = tested on: SNB-75 CNS
[9] = tested on: 786-0 renal
[10] = tested on: HL-60(TB) leukemia
[11] = tested on: K-562 leukemia
[12] = tested on: SN12C renal
[13] = tested on: A498 renal
[14] = tested on: SK-OV-3 ovarian
[15] = tested on: NCI-H226 lung
[16] = tested on: HOP-62 NSCLC
[17] = tested on: OVCAR-3 ovarian
[18] = tested on: MCF7 breast
[19] = tested on: MDA-MB-435

| Compound | TGI [1] | TGI [2] | TGI [3] | TGI [4] | TGI [5] | TGI [6] | TGI [7] | TGI [8] | TGI [9] | TGI [10] | TGI [11] | TGI [12] | TGI [13] | TGI [14] | TGI [15] | TGI [16] | TGI [17] | TGI [18] | TGI [19] |
| --- | --- | --- | --- | --- | --- | --- | --- | --- | --- | --- | --- | --- | --- | --- | --- | --- | --- | --- | --- |
| CC1SC2=NC3=C(c4ccccc4C3=O)C(c3ccccc3Cl)N2C1=O (centres undefined) | > 100 µM | > 100 µM | > 100 µM | > 100 µM | > 100 µM | > 100 µM | > 100 µM | > 100 µM | > 100 µM | > 100 µM | > 100 µM | > 100 µM | > 100 µM | > 100 µM | > 100 µM | > 100 µM | > 100 µM |  |  |
| CN/N=C(\C(=O)Nc1ccc(C(F)(F)F)cc1[N+](=O)[O-])C(c1cnc2ccc([N+](=O)[O-])cc2n1)[N+](=O)[O-] (centres undefined) | > 100 µM | > 100 µM | > 100 µM | > 100 µM | > 100 µM | > 100 µM |  |  | > 100 µM |  | > 100 µM | > 100 µM | > 100 µM | > 100 µM | 78.5 µM | > 100 µM | > 100 µM |  |  |
| CCCCCCCC(=O)OC[C@H](C[As](=O)(O)O)OC(=O)CCCCCCC | 19.1 µM | 23.5 µM | 25.3 µM | 8.8 µM | 20 µM | 25.6 µM | 29.1 µM | 32.3 µM | 26.7 µM | 22 µM | 41.6 µM | 21.7 µM | 25.3 µM | 29 µM | 17.6 µM | 33.1 µM |  |  |  |
| CSc1nc(NC2OCC(OC(C)=O)C(OC(C)=O)C2OC(C)=O)c2c(n1)OCC2=O (centres undefined) | > 100 µM | > 100 µM | > 100 µM | > 100 µM | > 100 µM | > 100 µM |  | > 100 µM | > 100 µM | > 100 µM | > 100 µM | > 100 µM | > 100 µM | > 100 µM | > 100 µM | > 100 µM | > 100 µM |  |  |
| Oc1ccc(C2Oc3cc(O)cc4c3C2c2cc(O)cc3c2C(c2cc(O)cc5c2C4C(c2ccc(O)cc2)O5)C(c2ccc(O)cc2)O3)cc1 (centres undefined) | > 25 µM | > 25 µM | 20.7 µM | > 25 µM | > 25 µM | > 25 µM | 10.4 µM | 15.5 µM | > 25 µM | 14.1 µM | > 25 µM | > 25 µM | > 25 µM |  | 17.3 µM | > 25 µM | > 25 µM |  |  |
| CNC(=O)N1CN(c2ccccc2)C2(CCN(Cc3ccccc3)CC2)C1=O | > 100 µM | > 100 µM | > 100 µM | > 100 µM | > 100 µM | > 100 µM |  | > 100 µM | > 100 µM | > 100 µM | > 100 µM | > 100 µM |  | > 100 µM | > 100 µM | > 100 µM | > 100 µM | > 100 µM |  |
| CC(C)(CCl)NC(=O)c1cccc(C(=O)NC(C)(C)CCl)n1 | > 100 µM | > 100 µM | > 100 µM | > 100 µM | > 100 µM | > 100 µM | > 100 µM | > 100 µM | > 100 µM | > 100 µM | > 100 µM | > 100 µM | > 100 µM | > 100 µM | > 100 µM | > 100 µM | > 100 µM |  |  |
| O=C(O[C@H]1[C@@H]2C=CO[C@@H](OC3OC(CO)C(O)C(O)C3O)[C@@H]2[C@@]2(CO)O[C@@H]12)c1ccc(O)c(O)c1 (some centres undefined) | > 100 µM |  | > 100 µM | > 100 µM | > 100 µM | > 100 µM | > 100 µM | > 100 µM | > 100 µM | > 100 µM | > 100 µM | > 100 µM | > 100 µM | > 100 µM |  | > 100 µM | > 100 µM |  |  |
| CN1N=C2c3ccccc3OC(c3ccccc3)[C@H]2C1c1ccccc1 (some centres undefined) | > 100 µM | > 100 µM | 78.3 µM | > 100 µM | > 100 µM | > 100 µM | > 100 µM |  | > 100 µM | > 100 µM | > 100 µM | > 100 µM | > 100 µM | > 100 µM | > 100 µM | > 100 µM | > 100 µM |  |  |
| O=c1c(C(c2ccc([N+](=O)[O-])cc2)c2c(O)c3ccccc3n(-c3ccccc3)c2=O)c(O)c2ccccc2n1-c1ccccc1 | 75.2 µM | 30.7 µM | 28.8 µM | 13.4 µM | 57.7 µM |  | > 100 µM |  | 26.9 µM |  | > 100 µM | > 100 µM |  | > 100 µM | 74.8 µM | 37.4 µM | 70.5 µM |  |  |
| COc1ccc(N/N=C/C2=CC(C)(C)C(C#N)(C#N)C(O)=C2C#N)cc1 | > 100 µM | > 100 µM | > 100 µM | > 100 µM | > 100 µM | > 100 µM | > 100 µM | > 100 µM | > 100 µM | > 100 µM | > 100 µM | > 100 µM | 81 µM |  | > 100 µM | > 100 µM | > 100 µM | > 100 µM | > 100 µM |
| CN/N=C(\C)C(CN1CCCCC1)C(C1=C(O)c2ccccc2OC1)c1ccccc1 (centres undefined) | > 100 µM | > 100 µM | > 100 µM | > 100 µM | > 100 µM | > 100 µM | > 100 µM | > 100 µM | > 100 µM | > 100 µM | > 100 µM | > 100 µM |  | > 100 µM | > 100 µM | > 100 µM | > 100 µM |  |  |
| O=c1[nH]nc(CNc2ccc(Cl)cc2Cl)c2ccccc12 | 37.9 µM | 89.1 µM | 49.7 µM | > 100 µM | > 100 µM | > 100 µM | 39.8 µM | 60.8 µM | 41.3 µM | > 100 µM | > 100 µM | 97 µM | 33.7 µM | 38.1 µM | 81.2 µM | 43 µM | 40.3 µM |  |  |
| COC(=O)CCC(=O)c1ccc2c(c1)CC1(C2)Cc2ccc(C(=O)CCC(=O)OC)cc2C1 | > 100 µM | > 100 µM | > 100 µM | > 100 µM |  | > 100 µM | > 100 µM | 0.172 µM | > 100 µM | > 100 µM | > 100 µM | > 100 µM | > 100 µM | > 100 µM |  | > 100 µM | > 100 µM | > 100 µM | > 100 µM |
